Active and inactive are the calls of the source. The calls are words filed in the database; no cut-off is given here.
Assays:
Format in all cases: cell-based
Details in all cases: HEK-293T
[1] = target: T1, Gamma-aminobutyric acid receptor subunit beta-2 (Homo sapiens) (UniProt P47870); test: Neurotransmitter activity at GABAA beta2 receptor expressed in HEK293T cells assessed as release of GABA-induced permeability to chloride ions by photolysis technique
T1 sequence (whole entry): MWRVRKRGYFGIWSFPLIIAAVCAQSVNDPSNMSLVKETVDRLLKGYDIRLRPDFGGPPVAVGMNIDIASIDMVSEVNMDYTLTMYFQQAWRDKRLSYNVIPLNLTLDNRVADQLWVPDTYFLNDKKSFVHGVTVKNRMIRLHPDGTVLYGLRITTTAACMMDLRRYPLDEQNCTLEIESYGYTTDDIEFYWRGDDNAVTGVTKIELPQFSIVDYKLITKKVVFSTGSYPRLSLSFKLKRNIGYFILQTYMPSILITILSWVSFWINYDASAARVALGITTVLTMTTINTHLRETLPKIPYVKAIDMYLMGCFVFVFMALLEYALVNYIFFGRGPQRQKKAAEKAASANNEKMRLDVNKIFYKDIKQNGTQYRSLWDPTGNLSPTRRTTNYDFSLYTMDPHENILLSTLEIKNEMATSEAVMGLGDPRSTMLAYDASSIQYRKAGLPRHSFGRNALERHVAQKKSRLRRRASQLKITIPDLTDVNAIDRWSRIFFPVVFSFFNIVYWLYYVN

[2] = target: T2, Gamma-aminobutyric acid receptor subunit delta (Homo sapiens) (UniProt O14764); test: Neurotransmitter activity at GABAA delta receptor expressed in HEK293T cells assessed as release of GABA-induced membrane permeability to chloride ions by photolysis technique
T2 sequence (whole entry): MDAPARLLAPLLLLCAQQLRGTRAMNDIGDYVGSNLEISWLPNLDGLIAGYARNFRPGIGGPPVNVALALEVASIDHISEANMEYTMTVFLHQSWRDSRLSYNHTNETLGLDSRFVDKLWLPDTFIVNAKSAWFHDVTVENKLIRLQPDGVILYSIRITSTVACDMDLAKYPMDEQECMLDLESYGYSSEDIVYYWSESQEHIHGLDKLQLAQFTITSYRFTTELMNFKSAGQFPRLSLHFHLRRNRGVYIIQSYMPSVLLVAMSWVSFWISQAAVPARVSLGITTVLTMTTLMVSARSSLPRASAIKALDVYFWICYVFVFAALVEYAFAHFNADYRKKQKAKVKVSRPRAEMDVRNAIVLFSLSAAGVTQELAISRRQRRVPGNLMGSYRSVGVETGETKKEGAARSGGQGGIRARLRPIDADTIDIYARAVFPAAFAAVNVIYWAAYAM

[3] = target: T3, Gamma-aminobutyric acid receptor subunit alpha-1 (Homo sapiens) (UniProt P14867); test: Neurotransmitter activity at GABAA alpha1 receptor expressed in HEK293T cells assessed as release of GABA-induced permeability to chloride ions by photolysis technique
T3 sequence (whole entry): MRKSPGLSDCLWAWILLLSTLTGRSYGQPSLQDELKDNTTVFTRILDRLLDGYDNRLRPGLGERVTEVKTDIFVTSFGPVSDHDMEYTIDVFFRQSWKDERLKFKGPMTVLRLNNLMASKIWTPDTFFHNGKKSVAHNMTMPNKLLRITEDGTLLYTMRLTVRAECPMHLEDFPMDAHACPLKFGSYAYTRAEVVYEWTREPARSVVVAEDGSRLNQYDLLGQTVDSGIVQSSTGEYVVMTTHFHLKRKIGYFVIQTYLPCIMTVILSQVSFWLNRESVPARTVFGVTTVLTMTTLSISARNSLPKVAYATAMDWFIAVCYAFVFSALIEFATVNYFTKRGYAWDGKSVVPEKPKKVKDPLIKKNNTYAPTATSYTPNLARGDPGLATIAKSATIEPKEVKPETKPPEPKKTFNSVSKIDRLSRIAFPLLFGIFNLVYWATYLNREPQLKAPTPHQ

Activity [1]: Active | Activity [2]: Active | Activity [3]: Active
SMILES: CCOC(=O)CNC(=O)C(OC(=O)CCCN)c1cc(=O)oc2cc(N(CC)CC)ccc12 (stereo not drawn)
